# Laboratory results: PMC7248570 (Frontiers in Microbiology, 2020)
# Columns and labels:
# CgmycLAO = format: biochemical, Infundibulicybe geotropa
# CgLAO = format: biochemical, Infundibulicybe geotropa
smiles,measurement,setting,value
CC(C)C[C@H](N)C(=O)O [L-Leu],Km,CgmycLAO,1520 ± 60 µM
same,Km,CgLAO,550 ± 60 µM
